This is an account of results in US4568765A, “Isoprenylamine derivatives” (priority 1981, dated 1986).

Like-named read-outs stand apart in the source and are kept apart here.

In series [1] the test system is vaccinia virus. The series is classed as in vivo. To be noted: ICR female mice; 50 mg/kg intraperitoneally 24 hours before i.v. virus inoculation; lesions counted on 8th day; against surfactant solution group.
Series [2] in a line: Toxicity (50% lethal dose, intravenous). Type of series: in vivo. To be noted: ddY male mice 20-25 g. The source says: Using ddY male mice weighing 20-25 g, 50% lethal dose of each test compound when intravenously administered was obtained, the results of which are shown in Table 6.
Series [3] relates to human interferon; normal diploid cells (fibroblast). Nature of the series: Human interferon inducing activity (in vitro), 3H-uridine-uptake inhibition. The series is classed as cell-based. To be noted: 25 n molar suspension, radioisotope microassay. The method, then:
Interferon was induced according to the method of Edward A. Havell et al. by treating normal diploid cells (fibroblast) originated from human being with each test compound (in the form of ethanol solution diluted with PBS (-), 25 n molar suspension). Using the radioisotope microassay method of H. Ishitsuka et al., interferon was measured in terms of 3H-uridine-uptakeinhibition rate.

The test system of series [4] is tumor cells KN7 -8. In words: Anti-tumor activity (survivors on the 30th day). The series is classed as in vivo. Conditions: survivors/group of 6 Balb/c male mice, 5×10^5 KN7 -8 cells i.p., 30 mg/kg i.p. 24 hours before and on 2nd and 5th day after inoculation. Here is the method:
Groups, each consisting of 6 Balb/c male mice weighing about 20 g, were intraperitoneally administered 5×10^5 of tumor cells KN7 -8. Each test compound suspended in a surfactant solution was intraperitoneally administered (each time at a rate of 30 mg/kg) to the mice 24 hours before inoculation of the tumor cells and on the second day and the fifth day after the inoculation, totalling 3 times, and the anti-tumor activity was evaluated in terms of number of survivors on the 30th day after the inoculation.

Series [5] concerns vaccinia virus. Type of series: cell-based. Conditions: vero cells; 50 n molar concentration.

As a reminder, the LD50 is the dose at which mortality reaches 50%.

With `CC(C)=CCCC(C)=CCCC(C)=CCCC(C)=CCCC(C)=CCCC(C)=CCCC(C)=CCCC(C)=CCCC(C)=CCNCCNCCNCCN` [drawing 18], in series [1], the “Prevention from vaccinia infection (Pock inhibition rate %)” value (shortened to “Prevention … (Pock inhibition rate %)”) was determined as 76.1%. In turn, `CC(C)=CCCC(C)=CCCC(C)=CCCC(C)=CCCC(C)=CCCC(C)=CCCC(C)=CCCC(C)=CCCC(C)=CCCC(C)=CCNCCNCCNCCN` [drawing 28] had an LD50 in series [2] of 21 mg/kg. `CC(C)=CCCC(C)=CCCC(C)=CCCC(C)=CCCC(C)=CCCC(C)=CCCC(C)=CCCC(C)=CCCC(C)=CCCC(C)=CCNCCNCCN` [drawing 17]: in series [1], the “Prevention … (Pock inhibition rate %)” value worked out at 51.9%. Take `CC(C)=CCCC(C)=CCCC(C)=CCCC(C)=CCCC(C)=CCCC(C)=CCCC(C)=CCCC(C)=CCCC(C)=CCCC(C)=CCN(CCN(CCN(CCNCc1ccccc1)Cc1ccccc1)Cc1ccccc1)Cc1ccccc1`: in series [3], the “Human interferon (in vitro) 3H-uridine-uptake inhibition rate %” value is 23.2%. `CC(C)=CCCC(C)=CCCC(C)=CCCC(C)=CCCC(C)=CCCC(C)=CCCC(C)=CCCC(C)=CCCC(C)=CCCC(C)=CCNCCNCCN` [drawing 20]: the “Anti-tumor activity (Survivor on the 30th day)” value (shortened to “Anti-tumor activity”) in series [4] (30 mg/kg) is 1/6. `CC(C)=CCCC(C)=CCCC(C)=CCCC(C)=CCCC(C)=CCCC(C)=CCCC(C)=CCCC(C)=CCCC(C)=CCCC(C)=CCNCCNCCNCCN` [drawing 16]: the “Prevention … (Pock inhibition rate %)” value in series [1] is given as 87.9%. Consider `CC(C)=CCCC(C)=CCCC(C)=CCCC(C)=CCCC(C)=CCCC(C)=CCCC(C)=CCCC(C)=CCCC(C)=CCNCCNCCNCCN` [drawing 21], for which the “Anti-tumor activity” value in series [4] was 3/6. The same measure, in the same setting: with `CC(C)=CCCC(C)=CCCC(C)=CCCC(C)=CCCC(C)=CCCC(C)=CCCC(C)=CCCC(C)=CCCC(C)=CCCC(C)=CCNCCNCCNCCN` [drawing 19] the figure was 5/6.

Consider `CC(C)=CCCC(C)=CCCC(C)=CCCC(C)=CCCC(C)=CCCC(C)=CCCC(C)=CCCC(C)=CCCC(C)=CCCC(C)=CCNCCNCCN` [drawing 24], for which the “Human interferon (in vitro) 3H-uridine-uptake inhibition rate %” value in series [3] was 15.1%. In series [2], `CC(C)=CCCC(C)=CCCC(C)=CCCC(C)=CCCC(C)=CCCC(C)=CCCC(C)=CCCC(C)=CCCC(C)=CCCC(C)=CCNCCNCCNCCN` [drawing 27] gave an LD50 of 57 mg/kg. In the case of `CCNCCN(CC)CCN(CC)CCN(CC)CC=C(C)CCCC(C)CCCC(C)CCCC(C)C` (stereo not shown), in series [2] (mouse, in vivo, iv, read-out: LD50), the LD50 came to 34 mg/kg.

For `CC(C)=CCCC(C)=CCCC(C)=CCCC(C)=CCCC(C)=CCCC(C)=CCCC(C)=CCCC(C)=CCCC(C)=CCCC(C)=CCNCCNCCNCCN` [drawing 25], in series [5], the “Anti-vaccinia virus activity (in vitro) (Plaque inhibition rate %)” value was 44.5%. As to `CC(C)=CCCC(C)=CCCC(C)=CCCC(C)=CCCC(C)=CCCC(C)=CCCC(C)=CCCC(C)=CCCC(C)=CCCC(C)=CCNCCNCCN` [drawing 22], the “Anti-tumor activity” value in series [4] (30 mg/kg) is given as 2/6.
